Source: patent US9493468B2, “Antifungal 5,6-dihydro-4H-pyrrolo[1,2-a][1,4]benzo-diazepines and 6H-pyrrolo[1,2-a][1,4]benzodiazepines substituted with heterocyclic derivatives” (Janssen Pharmaceutica NV, priority 2011, dated 2016)

Assays:
Type in all cases: cell-based
Microsporum canis = test: Antifungal activity in vitro, resazurin growth inhibition: Microsporum canis (B68128)
Procedure, shortened: (§1)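 Resazurin conversion to fluorescent resorufin (ex 550/em 590 nm) served as the growth readout. Compounds spanned 2- or 4-fold serial dilutions with 64 μM top in-test concentration; inoculum 10^3 cfu per well in MOPS-buffered RPMI-1640 (pH 7.0, 2% glucose). Incubation species-dependent, dermatophytes at 27° C. for ≥1 week.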

[1] = test system: Trichophyton mentagrophytes; test: Antifungal activity in vitro, resazurin growth inhibition: Trichophyton mentagrophytes (B70554)
Procedure, shortened: as §1

Trichophyton rubrum = test: Antifungal activity in vitro, resazurin growth inhibition: Trichophyton rubrum (B68183)
Procedure, shortened: as §1

Scedosporium apiospermum = test: Antifungal activity in vitro, resazurin growth inhibition: Scedosporium apiospermum (IHEM3817)
Procedure, shortened: as §1

Scedosporium prolificans = test: Antifungal activity in vitro, resazurin growth inhibition: Scedosporium prolificans (IHEM21157)
Procedure, shortened: as §1

Sporothrix schenkii = test: Antifungal activity in vitro, resazurin growth inhibition: Sporothrix schenkii (B62482)
Procedure, shortened: as §1

Aspergillus fumigatus = test: Antifungal activity in vitro, resazurin growth inhibition: Aspergillus fumigatus (B42928)
Procedure, shortened: as §1

Candida parapsilosis = test: Antifungal activity in vitro, resazurin growth inhibition: Candida parapsilosis (B66126)
Procedure, shortened: as §1

Cryptococcus neoformans = test: Antifungal activity in vitro, resazurin growth inhibition: Cryptococcus neoformans (B66663)
Procedure, shortened: as §1

Rhizopus oryzae = test: Antifungal activity in vitro, resazurin growth inhibition: Rhizopus oryzae (IHEM5223)
Procedure, shortened: as §1

Rhizomucor miehei = test: Antifungal activity in vitro, resazurin growth inhibition: Rhizomucor miehei (IHEM13391)
Procedure, shortened: as §1

Row | SMILES | Inf. B: Microsporum canis B68128, pIC50 (Microsporum canis) | Inf. G: Trichophyton mentagrophytes B70554, pIC50 [1] | Inf. C: Trichophyton rubrum B68183, pIC50 (Trichophyton rubrum) | Inf. H: Scedosporium apiospermum IHEM3817, pIC50 (Scedosporium apiospermum) | Inf. I: Scedosporium prolificans IHEM21157, pIC50 (Scedosporium prolificans) | Inf. A: Sporothrix schenkii B62482, pIC50 (Sporothrix schenkii) | Inf. E: Aspergillus fumigatus B42928, pIC50 (Aspergillus fumigatus) | Inf. D: Candida parapsilosis B66126, pIC50 (Candida parapsilosis) | Inf. F: Cryptococcus neoformans B66663, pIC50 (Cryptococcus neoformans) | Inf. J: Rhizopus oryzae IHEM5223, pIC50 (Rhizopus oryzae) | Inf. K: Rhizomucor miehei IHEM13391, pIC50 (Rhizomucor miehei)
1 | Clc1cccc2c1CN=C(c1cnc3occc3c1)c1cccn1-2 [Compound 161] | 5.96 | 5.40 | 6.12 | 6.47 | 6.27 | 5.02 | 5.04 | <4.19 | 4.56 | <4.19 | <4.19
2 | c1ccc2c(c1)CN=C(c1cc3ccccc3s1)c1cccn1-2 [Compound 163] | 6.14 | 5.99 | 6.71 | 5.63 | 6.27 | 5.59 | 5.61 | 5.12 | 6.51 | 4.98 | 5.06
3 | Cc1cccc2c1-n1cccc1C(c1cc3ccccc3s1)=NC2 [Compound 164] | 5.86 | 6.29 | 6.51 | 5.66 | 6.44 | 5.40 | 5.70 | 4.97 | 5.85 | <4.19 | 5.15
4 | Clc1cccc2c1CN=C(c1cc3ccccc3s1)c1cccn1-2 [Compound 165] | 6.19 | 5.86 | 6.70 | <4.19 | 4.46 | 5.12 | 5.28 | <4.19 | 5.81 | <4.19 | <4.19
5 | Clc1ccc2c(c1)-n1cccc1C(c1cc3ccccc3s1)=NC2 [Compound 166] | 5.70 | 5.52 | 5.70 | 4.33 | 5.65 | 5.52 | 6.00 | <4.19 | 6.00 | 5.37 | <4.19
6 | Clc1cccc2c1-n1cccc1C(c1cc3ccccc3s1)=NC2 [Compound 167] | 6.01 | 5.97 | 6.79 | 5.72 | 6.31 | 5.70 | 5.38 | 4.90 | 5.86 | <4.19 | 5.10
7 | Clc1cc(Cl)c2c(c1)-n1cccc1C(c1cc3ccccc3s1)=NC2 [Compound 168] | 4.96 | 6.40 | 6.18 | <4.19 | 6.48 | 6.22 | 6.73 | <4.19 | 6.41 | <4.19 | <4.19

Now from value to compound:

Row | Inf. B: Microsporum canis B68128, pIC50 (Microsporum canis) | Inf. G: Trichophyton mentagrophytes B70554, pIC50 [1] | Inf. C: Trichophyton rubrum B68183, pIC50 (Trichophyton rubrum) | Inf. H: Scedosporium apiospermum IHEM3817, pIC50 (Scedosporium apiospermum) | Inf. I: Scedosporium prolificans IHEM21157, pIC50 (Scedosporium prolificans) | Inf. A: Sporothrix schenkii B62482, pIC50 (Sporothrix schenkii) | Inf. E: Aspergillus fumigatus B42928, pIC50 (Aspergillus fumigatus) | Inf. D: Candida parapsilosis B66126, pIC50 (Candida parapsilosis) | Inf. F: Cryptococcus neoformans B66663, pIC50 (Cryptococcus neoformans) | Inf. J: Rhizopus oryzae IHEM5223, pIC50 (Rhizopus oryzae) | Inf. K: Rhizomucor miehei IHEM13391, pIC50 (Rhizomucor miehei) | SMILES
8 | 6.23 | 6.18 | 6.63 | 5.63 | 6.51 | 5.55 | 5.74 | <4.19 | 6.47 | <4.19 | <4.19 | Fc1cccc2cc(C3=NCc4c(Cl)cccc4-n4cccc43)sc12 [Compound 170]
9 | 6.90 | 6.81 | 7.35 | 5.15 | 5.45 | 5.59 | 6.29 | 5.80 | 5.85 | <4.19 | 4.72 | Clc1cccc2c1CN=C(c1ccc3ccsc3c1)c1cccn1-2 [Compound 172]
10 | 6.54 | 6.51 | 6.41 | 5.08 | 4.54 | 5.70 | 6.30 | 5.71 | 6.41 | <4.19 | 5.08 | Clc1ccc2c(c1)-n1cccc1C(c1ccc3sccc3c1)=NC2 [Compound 173]
11 | 6.54 | 6.80 | 6.87 | <4.19 | 4.80 | 6.06 | 6.30 | <4.19 | 6.43 | <4.19 | <4.19 | Clc1cccc2c1-n1cccc1C(c1ccc3sccc3c1)=NC2 [Compound 174]
12 | 6.90 | 7.11 | 7.36 | 5.08 | 5.56 | 5.70 | 6.85 | 6.17 | 6.41 | 5.07 | 5.14 | Fc1cccc2c1CN=C(c1ccc3sccc3c1)c1cccn1-2 [Compound 175]
13 | 6.89 | 6.57 | 6.90 | 5.54 | 6.15 | 5.70 | 6.49 | 6.03 | 6.49 | <4.19 | <4.19 | Fc1cc(F)c2c(c1)-n1cccc1C(c1ccc3sccc3c1)=NC2 [Compound 176]
14 | 5.85 | 5.99 | 6.68 | <4.49 | 4.96 | 4.77 | 5.26 | 5.31 | 4.49 | <4.49 | <4.49 | Cc1cccc2c1CN=C(c1ccc3ncsc3c1)c1cccn1-2 [Compound 183]
15 | 6.70 | 6.51 | 7.32 | <4.19 | 6.15 | <4.19 | 6.27 | <4.19 | <4.19 | <4.19 | <4.19 | Clc1cccc2c1CN=C(c1ccc3ncsc3c1)c1cccn1-2 [Compound 184]
16 | 6.39 | 6.04 | 6.73 | 4.41 | 5.16 | 5.28 | 6.29 | 4.23 | 6.33 | <4.19 | <4.19 | Clc1ccc2c(c1)-n1cccc1C(c1ccc3ncsc3c1)=NC2 [Compound 185]
